This note sets out measurements from patent US20210382058A1, “PATIENT SELECTION FOR TREATMENT OF MYC POSITIVE CANCERS WITH INDENOISOQUINOLINES” (Purdue Research Foundation, priority 2020, published 2021).

Each structure is given as a SMILES string.

One test concerns Telomeric G4 (hybrid). In words: Competition fluorescence displacement, competitor telomeric G4. It is filed as binding. As to conditions: for binding selectivity for parallel G4s over hybrid G4: competition fluorescence displacement, 1 and 5 equivalents; for Ki: competitor binding affinity, 20 nM 3′-TAMRA MycPu22, 20 nM compound, 20° C., pH 7, 100 mM K+. As for the experimental part: (§1) Using a competition fluorescence displacement assay, the binding selectivity of five indenoisoquinolines for MycG4 was determined as compared to a parallel K-Ras promoter G4, a hybrid telomeric G4, and double-stranded (ds) DNA at 1 and 5 equivalents of each compound (FIGS. 7 and 16A-16C). The 3′-TAMRA labeled MycPu22 DNA was used as the fluorescence probe, whose fluorescence was quenched upon the binding of indenoisoquinolines. Upon addition of unlabeled, non-fluorescent competitors (e.g. other DNA G4s and dsDNA), the TAMRA-labeled MycPu22 DNA is displaced by the competitor DNA for indenoisoquinoline binding and the initial high TAMRA-fluorescence is restored. The competition fluorescence displacement assay allows for a straightforward assessment of selective binding towards MycG4 vs. the competitors, i.e. MycG4s (parallel), K-Ras G4 (parallel), telomeric G4 (hybrid), and dsDNA. One and five compound equivalents were used to assess the selectivity of the strongest binding site and other binding sites of each indenoisoquinoline. […] As shown in the modeling study, the substituents on the A- and D-rings of indenoisoquinolines likely contribute to binding MycG4 by more optimal stacking interactions with the external G-tetrads. On the other hand, the increased size of the indenoisoquinoline ring system may hinder intercalation in dsDNA due to possible steric collision with the DNA backbone. […] 6-Substituted indenoisoquinolines were previously reported to bind to the c-Kit promoter G4s which were also primarily parallel.^17
(§2) The competition fluorescence displacement experiments were performed on a Jasco FP-8300 Spectrofluorometer equipped with a temperature controller at 20° C. The stock solution containing 2 μM 3′-TAMRA-labelled MycPu22 oligonucleotide was diluted to 20 nM using 75 mM KCl, 25 mM phosphate buffer at pH 7.0. To check the binding selectivity of each compound to MycG4 DNA, 20 nM or 100 nM of the indenoisoquinoline was added to the DNA solution in a total volume of 1.6 mL in a quartz cell with a 10 mm path length. Subsequently, various unlabeled MycG4s (MycPu22 and MycPu28), K-Ras G4, telomeric G4 DNAs, or calf thymus dsDNA were gradually added to the complex solution. For each addition of the DNA, the sample was equilibrated at least 2 min. The fluorescence spectrum was recorded between 570 and 600 nm with an excitation wavelength of 555 nm, 10 nm bandwidths, 100 nm/min of scan speed, and 1 s of response time. The fluorescence intensities at the emission maximum (Δmax=580 nm) were plotted for figures. The competitor binding affinities (K, values) were calculated by
(§3) using data from 20 nM compound. The C50 value was the concentration of the unlabeled competing DNA that recovers the fluorescence of the labelled DNA by 50%. [L] represents the ligand concentration that is a constant value of 20 nM. Kd,app values were obtained by fluorescence-based binding assay.

In the next test the test system is MycG4 (MycPu22 DNA). The test can be described thus: 1H NMR titration of MycPu22 DNA. As to conditions: 150 μM DNA, 25° C., pH 7, 100 mM K+. It is filed as binding, human. From the text: The binding interactions of six selected indenoisoquinolines with MycG4 were examined using ^1H NMR titration experiments in K^+-containing solution. […] The binding appeared to be in the medium-to-fast exchange rate on the NMR time-scale, as shown by the broadening of DNA proton peaks at lower drug equivalence (0.5 and 1) and the sharpening at higher drug equivalence (2 and 3). […] The MycG4 complexes of the five MycG4-interactive indenoisoquinolines were monomeric in nature as shown by native EMSA gels (FIG. 13).
All NMR experiments were conducted using a Bruker AV-500 spectrometer equipped with a Prodigy cryoprobe at 25° C. Watergate water suppression technique was used to suppress water signals. Briefly, each DNA sample was prepared to a final concentration of […] in 75 mM KCl, 25 mM phosphate buffer at pH 7.0, and containing 90/10% H2O/D2O. DNA samples were heated to 95° C. for 5 min then cooled slowly to room temperature for G4 formation. ^1H-NMR titrations were performed by adding increasing amounts of the compound (0.5 to 4 equivalents) to the oligonucleotide solution.

The next test addresses MycPu22. In words: Competition fluorescence displacement, competitor MycPu22. More on the design: species or system human. The settings on record: competitor binding affinity; 20 nM 3′-TAMRA MycPu22, 20 nM compound, 20° C., pH 7, 100 mM K+. As for the experimental part:
as §1, §2, §3

The next test addresses MycPu28. In words: Competition fluorescence displacement, competitor MycPu28. As to conditions: competitor binding affinity; 20 nM 3′-TAMRA MycPu22, 20 nM compound, 20° C., pH 7, 100 mM K+. More on the design: species or system human. Here is the method:
as §1, §2, §3

Another test relates to calf thymus dsDNA. In words: Competition fluorescence displacement, competitor dsDNA. It counts as binding. The settings on record: for binding selectivity for DNA G4s over dsDNA: competition fluorescence displacement, 1 and 5 equivalents; for Ki: competitor binding affinity, Ki refers to the base-pair concentration, 20 nM compound, 20° C., pH 7, 100 mM K+. As for the experimental part: as §1, §2, §3

Test [1] addresses K-RasG4 (parallel K-Ras promoter G4). The test can be described thus: Competition fluorescence displacement, competitor K-Ras G4. The settings on record: competitor binding affinity; 20 nM 3′-TAMRA MycPu22, 20 nM compound, 20° C., pH 7, 100 mM K+. Here is the method:
as §1, §2, §3

As a reminder, the Ki is a dissociation constant, usually derived from enzyme kinetics or from competition with a known ligand. High values mean lower affinity, low ones higher affinity.

As for `COc1cnc2c(c1)C(=O)c1c-2n(CCCNC(C)C)c(=O)c2cc(F)ccc12` [Compound 5], in the test with Telomeric G4 (hybrid), the “binding selectivity for parallel G4s over hybrid G4” value was “marked selectivity”. For the same compound, the Ki at Telomeric G4 (hybrid) is 164 nM; at MycPu22, 16 nM; at MycPu28 it was 18 nM; in the test with calf thymus dsDNA, roughly 11000 nM; in test [1] it was 21 nM. In addition, the “binding to MycG4 by 1H NMR titration” value with MycG4 (MycPu22 DNA) is listed as “more specific binding to MycG4”. For the same compound, the “binding selectivity for DNA G4s over dsDNA” value with calf thymus dsDNA was “remarkable selectivity”.

Take `O=C1c2ccccc2-c2c1c1ccccc1c(=O)n2CCCNCCO` [Compound 13]: the “binding selectivity for parallel G4s over hybrid G4” value in the test on Telomeric G4 (hybrid) is given as “selectivity for parallel G4s over hybrid G4”. Also, the Ki at Telomeric G4 (hybrid) was 146 nM; on MycPu22, 26 nM; at MycPu28 it was 19 nM; in the test on calf thymus dsDNA, 2140 nM; in test [1] it was 23 nM. Besides, the “binding to MycG4 by 1H NMR titration” value in the test with MycG4 (MycPu22 DNA) is on record as “more specific binding to MycG4”. Moreover, in the test with calf thymus dsDNA, the “binding selectivity for DNA G4s over dsDNA” value is recorded as “much less selectivity against dsDNA”.

On to `COc1cnc2c(c1)C(=O)c1c-2n(CCCN2CCCC2)c(=O)c2cc([N+](=O)[O-])ccc12` [Compound 9], for which the “binding selectivity for parallel G4s over hybrid G4” value in the test on Telomeric G4 (hybrid) is reported as “much less selectivity”. Also, the Ki came out at 28 nM on Telomeric G4 (hybrid); 12 nM on MycPu22; 11 nM on MycPu28; 5170 nM with calf thymus dsDNA; 11 nM in test [1]. The “binding to MycG4 by 1H NMR titration” value in the test with MycG4 (MycPu22 DNA) is “less well-defined MycG4 complexes”. Besides, the “binding selectivity for DNA G4s over dsDNA” value in the test with calf thymus dsDNA was “remarkable selectivity”.

Consider `CNCCCn1c2c(c3ccc(F)cc3c1=O)C(=O)c1cc(OC)cnc1-2` [Compound 6], for which, in the test with Telomeric G4 (hybrid), the “binding selectivity for parallel G4s over hybrid G4” value is on record as “marked selectivity”. Also, the Ki on Telomeric G4 (hybrid) was 286 nM; at MycPu22, 40 nM; on MycPu28 it was 33 nM; in the test on calf thymus dsDNA it was roughly 12000 nM; in test [1], 32 nM. Besides, in the test with MycG4 (MycPu22 DNA), the “binding to MycG4 by 1H NMR titration” value is given as “more specific binding to MycG4”. For the same compound, the “binding selectivity for DNA G4s over dsDNA” value with calf thymus dsDNA was “remarkable selectivity”.

As for `COc1cnc2c(c1)C(=O)c1c-2n(CCCNC2=NCCS2)c(=O)c2cc([N+](=O)[O-])ccc12` [Compound 12], the “binding selectivity for parallel G4s over hybrid G4” value in the test on Telomeric G4 (hybrid) is on record as “much less selectivity”. The Ki at Telomeric G4 (hybrid) was determined as 14 nM; on MycPu22, 7 nM; on MycPu28 it was 7 nM; in the test on calf thymus dsDNA, 3620 nM; in test [1], 7 nM. Further, in the test with MycG4 (MycPu22 DNA), the “binding to MycG4 by 1H NMR titration” value is “less well-defined MycG4 complexes”. For the same compound, the “binding selectivity for DNA G4s over dsDNA” value with calf thymus dsDNA was “remarkable selectivity”.
